Columns and labels:
[1] = tested on: reactive oxygen species (H2O2) in K562 cells; assay: ROS generation (DHR 123 and DCFH-DA fluorescence); assay type: cell-based, human; conditions: K562, IC50 concentration, 12 h incubation, DHR123 or DCF-DA, compared with untreated cells
Source text: The resulting data were expressed as mean ± SD from three independent experiments performed in triplicate.

[2] = tested on: HaCaT cells (human immortal keratinocytes); assay: MTT cytotoxicity assay, HaCaT; assay type: cell-based; conditions: 72 h incubation, mean ± SD
Protocol: (§1) The cell viability was analyzed at the following six concentrations of compounds: 5, 10, 20, 40, 60 and 100 µM after 72 h incubation.
(§2) Additionally, to determine the safety profile of the tested compounds, the therapeutic index (TI) (the ratio of IC50 value in HaCaT to cancer cells K562) was calculated. […] The goal of conducting the MTT assay in this research was to select benzofuran derivatives, which manage to reduce viability of cancer cells while exposing mild effects on normal healthy cells.
(§3) The cytotoxicity was evaluated by MTT reduction assay, which measures mitochondrial respiratory function. The test was performed based on the method described by Präbst et al.. Cells (1 × 10^4/well), in logarithmic phase, were seeded into 96-well plates in appropriate medium. After 24 h, cells were exposed to test compounds. […] After 72 h, the medium with the compounds was completely removed and MTT solution (0.5 mg/mL) in fresh medium without serum was added to each well. Plates with cells were incubated for 4 h at 37 °C in the dark. Then, MTT solution was removed and replenished with 0.1 mL DMSO: isopropanol (1:1) mixture to dissolve the generated formazan crystals. The optical density was measured with a […] GO (ThermoScientific) microplate reader at 570 nm. Replicates of three wells for each dosage, including vehicle control, were analyzed for each experiment. The experiments were conducted in triplicate. Control cells which were only treated with respective medium were used as the 100% viability value. […] Additionally, to determine the safety profile of the test compounds, therapeutic indexes (TI) (the ratio of IC50 values in HaCat to cancer cells (K562, PC3, SW620, Cack-1)) were calculated.

[3] = tested on: K562 cells; assay: Trypan blue exclusion assay, K562; assay type: cell-based, human; conditions: 72 h; for Cell Number (×10^6): K562, trypan blue, IC50 concentration
Protocol: The MTT assay assesses the viable cell number based on mitochondrial enzyme activity. […] In the next step of our studies, we analyzed the total cell number and viability after exposure to the selected compounds at IC50 concentration using trypan blue exclusion assay. K562 cells were incubated with tested compounds over 72 h. […] To assess the antiproliferative properties of newly synthesized derivatives, we analyzed the total cell number. […] The parallel experiment was conducted with HaCaT cells. […] The trypan blue test rapidly assesses cell viability indirectly from cell membrane integrity, but some publications have indicated weaknesses of this viability test. […] On the other hand, cell membrane integrity may be affected even while the cell might still be able to repair itself and become fully viable.
To evaluate the antiproliferative effects of the novel benzofurans derivatives the trypan blue exclusion assay was performed. Cells (HaCat, and K562) were seeded into 12-well plates (2 × 10^4 cells/well). After 24 h, cells were exposed to the tested compounds at concentrations of their respective IC50 and incubated for 72h. Then, cells were harvested and centrifugated (500× g, 5min). After centrifugation supernatant was removed and cell sediment was dissolved in 0.2 mL of PBS. Next, 10 µL of cells solution was mixed with 10 µL of trypan blue dye. Cells were counted by automatic cell counter (Countessa). Data obtained were expressed as the mean ± SD and the mean percentage of viable cells was calculated from three independent experiments performed in triplicate.

[4] = tested on: Cacki-1 cells (human clear cell renal cell carcinoma); assay: MTT cytotoxicity assay, Cacki-1; assay type: cell-based; conditions: 72 h incubation
Protocol: as §1, §2, §3

[5] = tested on: caspases 3 and 7 in K562 cells; assay: Caspase-Glo 3/7 assay; assay type: cell-based, human; conditions: IC50 concentration; for Effect on activity of caspases 3 and 7: 4 h incubation
Source text: ROS may play a different function in different stages of cancer. ROS might enhance cell growth and proliferation through the induction of various cell signaling pathways involving nuclear factor-kappa B (NF-κB) and STAT3, hypoxia-inducible factor 1α (HIF1α), kinases, growth factors, cytokines and many other proteins. On the other hand, the accumulation of ROS can induce cell damage and promote apoptosis. It has also been confirmed that elevated ROS concentration may cause mitochondrial membrane depolarization and facilitate increased cellular pro-apoptotic molecules releasing. […] As has been previously reported, lead compound 1,1′-[3-(bromomethyl)-5,6-dimethoxy-1-benzofuran-2,7-diyl] induces apoptosis in human leukemia cells. […] We used the Annexin V-FITC test, which allows us to detect the early structural changes in cellular membrane which occur during apoptosis. […] In the control sample almost 94% of cells were neither apoptotic nor necrotic. […] As has been previously written, the MTT test assesses the toxicity of tested compounds based on the activity of mitochondrial enzymes. […] Our results are in agreement with studies conducted by Liu et al. and Su et al. They report that the benzofuran derivatives ACDB and BL-038 induce apoptosis of human chandrosarcoma cells through ROS generation, mitochondria and endoplasmic reticulum dysfunction. BL-038 increases ROS production and dysregulates mitochondria membrane potential. This causes cytochrome C to be released from mitochondria and caspase activation. Similar effects have been observed for 2-amino-3-(2-chlorophenyl)-6-(4-dimethylaminophenyl) benzofuran-4-yl acetate (ACDB). It is well documented that disruption of the mitochondrial membrane as a result of, for example, the action of free radicals causes the release of cytochrome C. In the next step, cytochrome C binds to Apaf-1 (apoptotic protease activating factor 1) and it becomes the main component of apoptosome. The binding of cytochrome C with Apaf-1 is a critical step in apoptosome formation because it is responsible for the induction of intrinsic cell death pathway triggered by caspase activation. The observed increased concentration of hydrogen peroxide in cells exposed to both tested compounds might be a key factor for the molecular mechanism of apoptosis. Hydrogen peroxide can affect the redox state of cytochrome C. In addition to the effect of hydrogen peroxide on the iron atom in the cytochrome, it can also affect the activation of caspases. In order to estimate the effect of K562 exposure on the tested compounds as well as to confirm apoptotic properties of new benzofurans, we analyzed the effect of the compounds caspases 3 and 7 activities. […] We observed significant changes of activity after 48 h exposure. […] The caspase cascade responsible for executing cell death following cytochrome C release is well documented. Available research indicates, first of all, the key role of caspases 3 and 7 as mediators in the apoptosis through the intrinsic (mitochondrial) cell death pathway. […] They have shown that caspase 9 is responsible for mitochondrial morphological changes and ROS production by cleaving and activating Bid into tBid. Following caspase 9 activation, caspase 3 […] ROS generation and is essential for the efficient execution of apoptosis, whereas effector caspase 7 is needed for apoptotic cell detachment. […]
The induction of cell apoptosis was also analyzed by luminescent assay with the Caspases-Glo3/7 assay system (Promega). […]

[6] = tested on: K562 cells (human chronic myelogenous leukemia); assay: MTT cytotoxicity assay, K562; assay type: cell-based; conditions: 72 h incubation, mean ± SD
Protocol: as §1, §2, §3

SMILES	Increase of fluorescence intensity (ROS generation) [1]	IC50 [2]	Reduction of total cell number ([3]; K562, IC50 concentration, compared to control)	Cell Number (×10^6) [3]	IC50 [4]	Effect on activity of caspases 3 and 7 [5]	Increase of activity of caspases 3 and 7 ([5]; 12 h exposure)	IC50 [6]	Increase of activity of caspases 3 and 7 ([5]; 48 h exposure)
COc1cc(OC)c2c(CBr)c(C(C)=O)oc2c1 [Compound 6, 1-[3-(Bromomethyl)-4,6-Dimethoxy-1-Benzofuran-2-yl]Ethanone]	two-fold increase in fluorescence intensity	12.4 ± 1.27 µM	13%	0.62 ± 0.12 ×10^6	> 100 µM	did not affect the activity of caspases 3 and 7	26%	3.83 ± 0.6 µM	–
CCOc1cccc2oc(C(C)=O)c(CBr)c12 [Compound 8, 1-[3-(Bromomethyl)-4-Ethoxy-1-Benzofuran-2-yl]Ethanone]	statistically significant increase of fluorescence intensity	23.6 ± 10.7 µM	–	0.83 ± 0.12 ×10^6	> 100 µM	did not affect the activity of caspases 3 and 7	27%	2.59 ± 0.88 µM	13%

Source: PMC10888192, “New Derivatives of 1-(3-Methyl-1-Benzofuran-2-yl)Ethan-1-one: Synthesis and Preliminary Studies of Biological Activity” (International Journal of Molecular Sciences, 2024)
